Measurements published in patent US10144715B2, “Piperazine derivatives as liver X receptor modulators” (priority 2014, dated 2018).
Where two headings read alike, the source gives them in different places.

Experiments:
[1] = target: T1, Gal4 DNA binding domain fused to the LBD of LXRβ in HEK293 cells (Homo sapiens (Human), UniProt P55055); assay: cell-based
LXR α LBD protein [2] = target: T2, LXR α LBD protein (Homo sapiens (Human), UniProt Q13133); assay: LXR α radioligand binding assay (SPA, competition with [3H]TO901317); details: read-out: LXRα Binding Ki
LXR α LBD protein [3] = target: T2, LXR α LBD protein; assay: Human LXRα coactivator recruitment FRET assay, agonist mode; type: biochemical
Outline: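 LXRα- or LXRβ-LBD at 10 nM (2×) mixed with compound in DMSO, then fluorescein-SRC2-3 peptide 200 nM and Tb-anti-GST antibody 20 nM (4×) added; 2 h at rt. Time-resolved FRET read, 100 µs delay, 200 µs window; EC50 from four-parameter fit of percent control.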

LXR β LBD protein [4] = target: T3, LXR β LBD protein (Homo sapiens (Human), UniProt P55055); assay: biochemical
Target sequence in this assay (P55055 222-460): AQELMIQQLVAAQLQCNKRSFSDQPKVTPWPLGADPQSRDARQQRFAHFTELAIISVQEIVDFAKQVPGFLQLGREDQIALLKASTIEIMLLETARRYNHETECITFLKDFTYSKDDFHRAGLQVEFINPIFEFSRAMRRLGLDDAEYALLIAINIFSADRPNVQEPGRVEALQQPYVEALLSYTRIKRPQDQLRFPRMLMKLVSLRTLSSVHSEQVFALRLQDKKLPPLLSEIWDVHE
Description: (§1) This assay is based on the ability of the LXR-LBDs (LXRα and LXRβ) to recruit and interact with a co-activator peptide.
(§2) Two μL of the DMSO solutions were transferred to the plate and 38 μL of 10 nM LXRα-LBD or LXRβ-LBD (2×) were added immediately to the wells. The plate was shaken for 5 min at rt on an orbital micro shaker (DPC MicroMix® 5), after which 40 μL of 200 nM fluorescein-SRC2-3 peptide and 20 nM Terbium-anti-GST-antibody (Cat# PV3550, Life Technologies, Grand Island, N.Y.) solution (4×) were added to all. The plate was sealed and shaken for 2 min at rt, and incubated at rt for 2 h without agitation. […] The delay and window times were set at 100 and 200 microseconds, respectively. […] The percent control vs. compound concentration data were fit into a four-parameter model, and EC50 values were calculated from the fit as the concentrations corresponding to the inflection points on the concentration-response curves.

LXR β LBD protein [5] = target: T3, LXR β LBD protein; assay: biochemical; type: binding
Target sequence in this assay (P55055 222-460 limits assumed): as the sequence (P55055 222-460) above

[6] = target: T4, Gal4 DNA binding domain fused to the LBD of LXRα in HEK293 cells (Homo sapiens (Human), UniProt Q13133); assay: LXR luciferase transcriptional reporter gene assay, agonist mode, LXRα; type: cell-based; details: for EC50: read-out: Cell LXRα EC50
[7] = target: T4, Gal4 DNA binding domain fused to the LBD of LXRα in HEK293 cells; assay: LXR luciferase transcriptional reporter gene assay, antagonist mode (200 nM T0901317), LXRα; type: cell-based; details: for IC50: read-out: Cell LXRα IC50
LXR β LBD protein [8] = target: T3, LXR β LBD protein; assay: biochemical; type: biochemical; details: for EC50: read-out: FRET LXRβ EC50
Target sequence in this assay (P55055 222-460): as above

[9] = target: T1, Gal4 DNA binding domain fused to the LBD of LXRβ in HEK293 cells; assay: cell-based; type: cell-based
LXR α LBD protein [10] = target: T2, LXR α LBD protein; details: antagonist mode, 250 nM T0901317, coactivator recruitment TR-FRET; for IC50: read-out: FRET LXRα IC50
Description: as §1, §2

LXR β LBD protein [11] = target: T3, LXR β LBD protein; details: read-out: FRET LXRβ IC50
Target sequence in this assay (P55055 222-460): as above
Description: as §1, §2

LXRα-LBD or LXRβ-LBD = assay: Coactivator recruitment FRET assay, antagonist mode: agonist control signal (isoform not distinguished); type: biochemical, human; details: 250 nM T0901317, high TR-FRET signal in antagonist mode
Description: When this assay was carried out in “antagonist” mode, 250 nM T0901317 (full LXR agonist) was added to induce nearly maximal SRC2-3 recruitment.

[12] = antagonist mode, 200 nM T0901317, HEK293 reporter gene assay
[13] = agonist mode, read-out: Cell LXRβ EC50
[14] = Biological Test Example 2, agonist mode
[15] = Biological Test Example 3, agonist mode
[16] = Biological Test Example 1, read-out: LXRβ Binding Ki
[17] = antagonist mode, 200 nM T0901317, HEK293 reporter gene assay, read-out: Cell LXRβ IC50

T1 sequence (P55055 222-460 limits assumed): as the sequence (P55055 222-460) above
T4 sequence (Q13133 209-447): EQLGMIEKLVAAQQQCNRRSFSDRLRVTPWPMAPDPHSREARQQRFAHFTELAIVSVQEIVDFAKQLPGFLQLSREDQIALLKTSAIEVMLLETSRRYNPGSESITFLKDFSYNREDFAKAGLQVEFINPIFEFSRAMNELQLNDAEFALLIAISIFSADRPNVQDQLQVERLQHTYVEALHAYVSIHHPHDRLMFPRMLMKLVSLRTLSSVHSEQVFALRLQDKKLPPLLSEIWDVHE
T2 sequence (Q13133 209-447): as above

| Molecule | EC50 [1] [nM] | Ki (LXR α LBD protein [2]) [nM] | EC50 (LXR α LBD protein [3]; agonist mode) [nM] | FRET LXRα efficacy (LXR α LBD protein [3]; agonist mode) [%] | IC50 [7] [nM] | EC50 [6] [nM] | IC50 (LXR α LBD protein [10]) [nM] | Cell LXRβ efficacy [9, 12] | Cell LXRα efficacy [6] | further results |
| --- | --- | --- | --- | --- | --- | --- | --- | --- | --- | --- |
| CC(C)[C@H]1CN(c2cccc(S(C)(=O)=O)c2)CCN1C(=O)OC(C)(C)C [2-2, tert-butyl (S)-2-isopropyl-4-(3-(methylsulfonyl)phenyl)piperazine-1-carboxylate] | > 20000 | > 3330 | 23200 | 82 | – | – | – | – | – | IC50 (LXR β LBD protein [4]): > 50000 nM; Ki (LXR β LBD protein [5]): 1930 nM; EC50 ([6]; agonist mode): > 20000 nM |
| Cc1ccc(CN2CCN(c3cccc(S(C)(=O)=O)c3)C[C@@H]2c2ccccc2)cc1 (single isomer, unassigned) [46-6] | > 20000 | 519 | > 50000 | – | 957 | > 20000 | – | – | – | Cell LXRα efficacy [7]: 957 (105) %; EC50 (LXR β LBD protein [8]): > 50000 nM; Ki (LXR β LBD protein [5]; read-out: LXRβ Binding Ki): 63 nM; Cell LXRβ efficacy [9]: 148 (106) %; IC50 [9]: 148 nM |
| Cc1cccc(C2CN(c3cccc(S(C)(=O)=O)c3)CCN2Cc2ccc(C(F)(F)F)nc2)c1 (stereo not drawn) [46-62, 4-(3-(methylsulfonyl)phenyl)-2-(m-tolyl)-1-((6-(trifluoromethyl)pyridin-3-yl)methyl)piperazine] | – | – | 7770 | 32 | – | > 20000 | > 50000 | – | – | – |
| CC(C)[C@@H]1CN(c2cccc(S(C)(=O)=O)c2)CCN1C(=O)OC(C)(C)C [1-1, tert-butyl (R)-2-isopropyl-4-(3-(methylsulfonyl)phenyl)piperazine-1-carboxylate] | 467 | 1690 | 409 | 60 | > 10000 | 2780 | – | 1996 (45) % | 2778 (44) % | Cell LXRβ efficacy ([1]; agonist mode): 467 (34) %; FRET LXRβ efficacy (LXR β LBD protein [8]; agonist mode): 88%; EC50 (LXR β LBD protein [8]; agonist mode): 15 nM; Ki (LXR β LBD protein [5]; read-out: LXRβ Binding Ki): 157 nM; IC50 [9]: 2000 nM |
| tert-butyl 4-(3-(methylsulfonyl)phenyl)-2-phenylpiperazine-1-carboxylate [1-5] | – | – | 4100 | 63 | – | 4300 | > 50000 | – | 4297 (17) % | Cell LXRβ efficacy ([1]; agonist mode): 21%; EC50 [1, 13]: 898 nM; FRET LXRβ efficacy (LXR β LBD protein [8]; agonist mode): 78%; EC50 (LXR β LBD protein [8]; agonist mode): 227 nM; IC50 (LXR β LBD protein [11]; antagonist mode, 250 nM T0901317, coactivator recruitment TR-FRET): > 50000 nM |
| CS(=O)(=O)c1cccc(N2CCN(C[C@@H]3CCN(CC(F)(F)F)C3)[C@@H](c3ccccc3)C2)c1 (single isomer, unassigned) [48-61] | 467 | 1420 | – | – | – | – | – | 118 (72) % | 2312 (23) % | Cell LXRα efficacy [7]: 870 (56) %; IC50 [7, 12]: 870 nM; Cell LXRβ efficacy [1, 14]: 467 (5) %; EC50 (LXR α LBD protein [3]; [15]): 347 nM; FRET LXRα efficacy (LXR α LBD protein [3]; [15]): 26%; FRET LXRβ efficacy (LXR β LBD protein [8]; [15]): 112 (23) %; EC50 (LXR β LBD protein [8]): 112 nM; Ki (LXR β LBD protein [5]; [16]): 417 nM; IC50 [9]: 118 nM; EC50 [6, 14]: 2310 nM |
| CS(=O)(=O)c1cccc(N2CCN(Cc3ccc(C(F)(F)F)cc3)[C@H](c3ccccc3)C2)c1 (single isomer, unassigned) [46-14] | > 20000 | – | 14200 | 37 | – | – | > 50000 | – | – | FRET LXRβ efficacy (LXR β LBD protein [8]): 2742 (49) %; EC50 (LXR β LBD protein [8]): 2740 nM; IC50 (LXR β LBD protein [11]): > 50000 nM; EC50 ([6]; agonist mode): > 20000 nM |
| CS(=O)(=O)c1ccc(F)c(N2CCN(Cc3ccc(C(F)(F)F)nc3)C(c3ccccc3)C2)c1 (stereo not drawn) [46-50, 4-(2-fluoro-5-(methylsulfonyl)phenyl)-2-phenyl-1-((6-(trifluoromethyl)pyridin-3-yl)methyl)piperazine] | – | – | – | – | – | – | – | – | – | FRET LXRα efficacy (LXR α LBD protein [10]): 102% |
| O=S(=O)(c1ccccc1)N(CC(F)(F)F)c1ccc(C(O)(C(F)(F)F)C(F)(F)F)cc1 [TO901317] | – | – | – | – | – | – | – | – | – | SRC2-3 recruitment (LXRα-LBD or LXRβ-LBD): ~75% |
| CS(=O)(=O)c1cc(N2CCN(C[C@H]3CC[C@@H](C(F)(F)F)CC3)[C@@H](c3ccc(F)cc3)C2)ccc1F [48-48, (S)-4-(4-fluoro-3-(methylsulfonyl)phenyl)-2-(4-fluorophenyl)-1-(((1s,4R)-4-(trifluoromethyl)cyclohexyl)methyl)piperazine] | – | 156 | – | – | > 10000 | 460 | – | 52% | 460 (53) % | Cell LXRβ efficacy [1, 14]: 31%; EC50 ([1]; Biological Test Example 2, agonist mode, read-out: Cell LXRβ EC50): 112 nM; EC50 (LXR α LBD protein [3]; [15]): 1320 nM; FRET LXRα efficacy (LXR α LBD protein [3]; [15]): 42%; FRET LXRβ efficacy (LXR β LBD protein [8]; [15]): 40%; EC50 (LXR β LBD protein [8]; [15]): 142 nM; Ki (LXR β LBD protein [5]; [16]): 23 nM; IC50 [9, 17]: 2700 nM |
| CS(=O)(=O)c1cccc(N2CCN(C[C@H]3CC[C@@H](C(F)(F)F)CC3)[C@@H](c3ccccc3)C2)c1 (single isomer, unassigned) [48-31] | – | 42 | 401 | 56 | 6700 | 254 | – | 96% | 254 (61) % | Cell LXRα efficacy [7]: 6705 (128) %; Cell LXRβ efficacy ([1]; agonist mode): 35%; EC50 [1, 13]: 95 nM; FRET LXRβ efficacy (LXR β LBD protein [8]; agonist mode): 37%; EC50 (LXR β LBD protein [8]; agonist mode): 22 nM; Ki (LXR β LBD protein [5]; read-out: LXRβ Binding Ki): 5 nM; IC50 [9, 17]: 436 nM |
| tert-butyl (S)-2-benzyl-4-(3-(methylsulfonyl)phenyl)piperazine-1-carboxylate [1-7] | – | – | 11900 | 33 | – | 2550 | > 50000 | – | 2550 (8) % | – |
| CS(=O)(=O)c1cccc(N2CCN(Cc3ccc(C(F)(F)F)nc3)C(c3cccc(Cl)c3)C2)c1 (stereo not drawn) [46-55, 2-(3-chlorophenyl)-4-(3-(methylsulfonyl)phenyl)-1-((6-(trifluoromethyl)pyridin-3-yl)methyl)piperazine] | – | – | 6540 | 25 | – | – | > 50000 | – | 2773 (7) % | EC50 ([6]; agonist mode): 2770 nM |
| CC(C)c1ccc(CN2CCN(c3cccc(S(C)(=O)=O)c3)C[C@@H]2c2ccccc2)cc1 [46-8, (S)-1-(4-isopropylbenzyl)-4-(3-(methylsulfonyl)phenyl)-2-phenylpiperazine] | 1360 | 1720 | 468 | 15 | 8900 | 3200 | – | – | 3200 (22) % | Cell LXRα efficacy [7]: 8904 (282) %; Cell LXRβ efficacy [1]: 1358 (18) %; EC50 (LXR β LBD protein [8]): > 50000 nM; Ki (LXR β LBD protein [5]; read-out: LXRβ Binding Ki): 227 nM; Cell LXRβ efficacy [9]: 1421 (96) %; IC50 [9]: 1420 nM |
| CS(=O)(=O)c1cc(N2CCN(Cc3ccc(C(F)(F)F)nc3)C(c3ccccc3)C2)ccc1CO (stereo not drawn) [Cpd No 47-1, (2-(methylsulfonyl)-4-(3-phenyl-4-((6-(trifluoromethyl)pyridin-3-yl)methyl)piperazin-1-yl)phenyl)methanol] | – | – | 2020 | 76 | – | – | > 50000 | – | 8405 (46) % | EC50 ([6]; agonist mode): 8400 nM |
| C[C@]1(c2ccccc2)CN(c2cccc(S(C)(=O)=O)c2)CCN1Cc1ccc(C(F)(F)F)cc1 (single isomer, unassigned) [46-21] | 541 | – | 3000 | 24 | – | – | – | 537 (75) % | 2026 (20) % | IC50 [7, 12]: > 10000 nM; Cell LXRβ efficacy ([1]; agonist mode): 541 (12) %; EC50 (LXR β LBD protein [8]): > 50000 nM; Ki (LXR β LBD protein [5]): 85 nM; IC50 [9]: 537 nM; EC50 ([6]; agonist mode): 2030 nM |
| CS(=O)(=O)c1cc(N2CCN(C[C@H]3CC[C@@H](C(F)(F)F)CC3)[C@@H](c3ccccc3)C2)ccc1C(N)=O (single isomer, unassigned) [17-39] | – | – | 267 | 55 | 9840 | 1650 | – | 135% | 1648 (67) % | Cell LXRα efficacy [7]: 9842 (125) %; Cell LXRβ efficacy ([1]; agonist mode): 26%; EC50 [1, 13]: 630 nM; FRET LXRβ efficacy (LXR β LBD protein [8]; agonist mode): 61%; EC50 (LXR β LBD protein [8]; agonist mode): 63 nM; Ki (LXR β LBD protein [5]; read-out: LXRβ Binding Ki): 107 nM; IC50 [9, 17]: 2660 nM |
